Patent US8816047B2 (Cure DM Group Holdings, LLC, priority 2007, dated 2014)
Entries after “also recorded” stand apart in the source; their conditions may differ. Like-named read-outs stand apart in the source and are kept apart here. Where a SMILES comes first, the peptide text is derived from it. Bridges are numbered along the chain shown (N, C = ends). Roman numbers before positions name the chains, in order. Where no end group is shown, it is not given here.

Assays:
[1] = In vitro stability of peptides to proteases in human plasma at 37 C (HPLC/LC-MS); assay type: in vitro ADME; details: for stability to plasma proteases: 1 hr
Experimental: The peptides were incubated in human plasma, at 37° C. Sample incubations were performed over a period of 1 hr. Individual time points of 1, 5, 10, 30, and 60 minutes were used to follow the reactions. Deactivation of plasma proteases at each time point was achieved by heating the samples at 100° C. for 1 min. Following work-up the plasma treated samples were evaluated by reverse phase chromatography in series with at mass spectrometer, HPLC/LC-MS, against control samples.
Plasma Treated with HIP and Optimized HIP peptides were evaluated over 1, 5, 10, 30 and 60 minutes. For each time point 0.70 ml of plasma was pipetted into a 10 ml test tube. To each was added 0.30 ml of a stock solution of HIP or Optimized HIP peptide (1.66 mg/ml) prepared in phosphate buffered saline. The plasma/peptide samples were incubated at 37° C. for each time point followed by heating at 100° C. to inactivate the proteolytic activity of plasma proteases. Following inactivation, the samples were diluted with 1 ml of H2O, centrifuged and the supernatant liquid removed for analysis.
Samples were analyzed on a C-18 reverse phase column (50 mm×2.0 mm) using 0.07% TFA in H2O as buffer A and 0.07% TFA in acetonitrile as buffer B. A linear gradient of 98% A/2% B progressing to 30% A/70% B over 10 min. was used at a flow rate of 0.4 ml/min. Eluant was monitored by UV at a wavelength of 220 nm and by mass spectroscopy. Comparisons of chromatographic profiles of plasma treated peptides (37° C.) against peptide reference samples and plasma controls were used to determine the relative stability of peptide to plasma treatment.
T=0: Plasma (0.7 ml) plus peptide stock solution (0.3 ml), heat 100° C. 1 min. add 1 ml H2O, centrifuge.
Plasma background control: 0.7 ml plasma plus PBS (0.3 ml), heat 100° C. 1 min, add 1 ml H2O, centrifuge.
Peptide reference heat treated: Peptide stock solution (0.3 ml) plus 0.7 ml PBS, heat 100° C. 1 min., add 1 ml H2O.
Peptide reference no heat: Peptide stock solution (0.3 ml) add 0.7 ml PBS plus 1 ml H2O.

[2] = HIP2B stability study in distilled water by LC/MS; assay type: physicochemical; details: 4-8° C. and 25° C., 1, 2 and 3 weeks
Experimental: Experimental Procedure. The study was initiated with two groups of eight samples each. One group is maintained at 4-8° C. and the other at 25° C., as part of a 2 month stability study. Each sample contains 4.57 milligrams of HIP2B in 5 micro liters of distilled water. One sample from each temperature group is removed and placed in a minus 20° C. freezer, for storage, every seven days until an LC/MS analysis can be performed. A series of samples were evaluated after 1, 2, and 3 weeks in the stability study against a control sample of HIP2B which had been prepared at the initiation of the study and stored at −20° C. After three weeks of stability testing at each of the temperatures described above, all of the samples were unchanged as determined by LC/MS and therefore deemed stable at 1, 2, and three weeks.

[3] = Pharmacokinetics and absolute bioavailability in Sprague Dawley rats, IV and SC 4 mg/kg (LC/MS MS); assay type: in vivo, rat; details: for F: SQ versus IV; for appearance of animals post-dosing: all times post-dosing, each route; for C0: estimated; for plasma levels: intravenous or subcutaneous
Experimental: The absolute bioavailability and pharmacodynamic study was conducted in Sprague Dawley rats following intravenous and subcutaneous dose administration of HIP2 (FIG. 24), Optimized HIP2B and INGAP. The purpose was to determine the absorption, absolute bioavailability and plasma levels of HIP2, Optimized HIP2B and INGAP in male rats following two different routes of administration.
Six Groups of five male Sprague Dawley rats were administered HIP2, HIP2B or INGAP by intravenous and subcutaneous routes as follows in table below.
Ten serial blood plasma samples (0.03 ml each) were collected from a jugular vein catheter from five animals per group at 5, 10, 15, 30 minutes, 45 minutes followed by samples at 1, 2, 3, 8, and 24 hours post-dose. Plasma was collected into tubes containing EDTA. Following collection, samples were kept chilled on cool packs before centrifugation and transfer to pre-labeled microfuge tubes for storage at −70° C. or below.
Rat plasma samples of 200 μl each were added to a micro centrifuge tube containing 1 ml of acetonitrile (0.07% trifluoroacetic acid, TFA) and stirred with a vortex mixer for 1 min. followed by centrifugation to remove precipitated plasma proteins. The supernatant solution was removed and evaporated, using a Speed Vac, to dryness. To the micro centrifuge tube containing the dry pellet was added 200 μl of 20:80 acetonitrile:water (containing 0.07% TFA). The sample was centrifuged to remove any insoluble material and the supernatant solution transferred to analytical vials for LC/MS MS analysis. The mass spectrometer was calibrated to detect the most abundant daughter ion/ions observed for each of the respective reference samples of HIP2B (M=286.0), HIP2 (M=287.1) and INGAP (M=212.2, 356.1, 373.9). Optimized HIP2B, HIP2 and INGAP plasma samples were analyzed on a C-18 reverse phase column (50 mm×2.0 mm, Varian Pursuit XRS3) using 0.07% TFA in H2O as buffer A and 0.07% TFA in acetonitrile as buffer B. A linear gradient of 98% A/2% B progressing to 100% B over 9 minutes was used at a flow rate of 0.4 ml/min.
The following plasma controls were treated as described above and used to establish a standard concentration curve: • 1. Blank plasma as a background control • 2. Five standard plasma samples containing 6.7×10^4, 6.7×10^3, 6.7×10^2, […] ng/ml of HIP2B, HIP2 and INGAP

human plasma = details: 37° C., up to 60 minutes
diabetic mice = assay: Streptozocin diabetic mouse model, 28 days twice-daily IP dosing (Example 2); assay type: in vivo
Experimental: In Vivo Studies. HIP3, HIP1 and HIP2 has been the subject of in vivo studies in mice. […] The subject number was selected to yield a sufficient number of diabetic animals for the study and animals were randomly assigned to study groups. All animals were dosed via intraperitoneal injections twice daily (am and pm) for 28 consecutive days. The timing of dose administration remained consistent (±2 hours) during the dosing phase.
Mice were injected intraperitoneally with streptozocin at 40 mg/kg in citrate buffer, pH 4.5, on 5 consecutive days in an attempt to render them diabetic. […] If the blood glucose level in any animal rose to above 400 mg/dL, the animal was treated with insulin. Every 3 days, at the same time each day, a nick was made on the tail and a drop of blood was collected. Glucose measurements were determined using a glucose meter. Group assignments and dose levels were as follows in Table 1:
Study endpoints included the following: changes in glucose; changes in insulin requirements; and histology of post-mortem pancreata.

[4] = rat, in vivo, SQ, rat, read-out: AUC(0-∝)
[5] = rat, in vivo, SQ, rat, read-out: T1/2 (converted)
[6] = rat, in vivo, iv, rat, read-out: AUC(0-∝)
[7] = rat, in vivo, iv, rat, read-out: T1/2 (converted)

Ac-Ile-Gly-Leu-His-Asp-Pro-Thr-Gln-Gly-Thr-Glu-Pro-Asn-Gly-Cys(PEG)-NH2 [HIP2B Cys-PEG]
stability to plasma proteases ([1]; human plasma 37° C.): stable to plasma proteases for up to 1 hr

Ac-IGLHDPTQGTEPNG-NH2 [HIP2B, Ac-Ile-Gly-Leu-His-Asp-Pro-Thr-Gln-Gly-Thr-Glu-Pro-Asn-Gly-NH2]
stability by LC/MS [2]: unchanged | AUC(0-∝) ([3]; IV, rat): 1614.3 ng·h/mL | C1 h ([3]; IV, rat): 114 ng/mL | F ([3]; rat): 0.87 | appearance of animals post-dosing [3]: appeared normal | Cmax ([3]; in vivo, IV, rat): 8240 ng/mL | Tmax ([3]; in vivo, IV, rat): 4.98 min | C0 ([3]; in vivo, IV, rat): 18800 ng/mL | clearance ([3]; in vivo, IV, rat, read-out: apparent mean plasma clearance (converted)): 31.7 mL/min/kg | Vd ([3]; in vivo, IV, rat, read-out: apparent mean volume of distribution): 0.48 L/kg | Tmax ([3]; in vivo, SQ, rat): 10 min | Cmax ([3]; in vivo, SQ, rat, n = 5): 2740 ng/mL | bioavailability ([3]; in vivo, sc, rat, read-out: absolute subcutaneous bioavailability): 87% | CL/F ([3]; in vivo, sc, subcutaneous, rat, read-out: apparent mean Cl/F (converted)): 35 mL/min/kg | plasma levels ([3]; rat): significantly higher relative to HIP2 or INGAP | time by which concentrations were undetectable ([3]; intravenous, rat): ≤ 45 min | level at 1 h ([3]; male, Sprague Dawley, plasma, sc, SQ, rat, read-out: C1 h): 612 ng/mL | Vd/F ([3]; male, Sprague Dawley, plasma, sc, subcutaneous, rat, read-out: apparent mean V2/F): 1 L/kg | AUC [3, 4]: 1930 ng·h/mL | half-life [3, 5]: 20.4 min | AUC [3, 6]: 2230 ng·h/mL | half-life [3, 7]: 11.4 min | half-life ([3]; rat, in vivo, iv, rat, read-out: terminal phase plasma half-life): 11 min | half-life ([3]; rat, in vivo, sc, subcutaneous, rat, read-out: terminal phase plasma half-life): 20 min | stability to plasma proteases ([1]; human plasma 37° C.): completely stable | stability in vitro in serum ([1]; serum at 37 degrees, relative to HIP 2): significantly more a more stable

IGLHDPTQGTEPNGE [HIP3, Ile-Gly-Leu-His-Asp-Pro-Thr-Gln-Gly-Thr-Glu-Pro-Asn-Gly-Glu]
remaining at 1 h, 0.498 mg/ml ([1]; human plasma 37° C., after 60 min, read-out: starting concentration of peptide remaining): ~50%

CC[C@H](C)[C@H](NC(C)=O)C(=O)NCC(=O)N[C@@H](CC(C)C)C(=O)N[C@@H](Cc1c[nH]cn1)C(=O)N[C@@H](CC(=O)O)C(=O)N1CCC[C@H]1C(=O)N[C@H](C(=O)N[C@@H](CCC(N)=O)C(=O)NCC(=O)N[C@H](C(=O)N[C@@H](CCC(=O)O)C(=O)N1CCC[C@H]1C(=O)N[C@@H](CC(N)=O)C(=O)NCC(=O)N[C@@H](CSSC[C@H](NC(=O)CNC(=O)[C@H](CC(N)=O)NC(=O)[C@@H]1CCCN1C(=O)[C@H](CCC(=O)O)NC(=O)[C@@H](NC(=O)CNC(=O)[C@H](CCC(N)=O)NC(=O)[C@@H](NC(=O)[C@@H]1CCCN1C(=O)[C@H](CC(=O)O)NC(=O)[C@H](Cc1c[nH]cn1)NC(=O)[C@H](CC(C)C)NC(=O)CNC(=O)[C@@H](NC(C)=O)[C@@H](C)CC)[C@@H](C)O)[C@@H](C)O)C(N)=O)C(N)=O)[C@@H](C)O)[C@@H](C)O [HIP2B Cys-Dimer, (Ac-Ile-Gly-Leu-His-Asp-Pro-Thr-Gln-Gly-Thr-Glu-Pro-Asn-Gly-Cys-NH2)2] (I: Ac-IGLHDPTQGTEPNGC-NH2 / II: Ac-IGLHDPTQGTEPNGC-NH2; disulfide I:15-II:15)
stability to plasma proteases ([1]; human plasma 37° C.): stable to plasma proteases for at least 1 hr

IGLHDPTQGTEPNG
cleaved bond (human plasma): isoleucine-G, major, 1 min; also recorded: L-H, minor

Ac-IGLHDPTQGTEPNG-NH2
not cleaved (human plasma): completely stable to plasma proteases after 1 hr of incubation at 37 °C

WIGLHDPTQGTEPNG [HIP1]
lower mean glucose versus control (diabetic mice; 250 μg IP twice daily for 28 days, STZ diabetic mice): 14.7% | differentiation of progenitor cells within the pancreas into new islet structures (diabetic mice; introduced into diabetic mice): stimulate differentiation of progenitor cells within the pancreas into new islet structures

(Ac-IGLHDPTQGTEPNGC-NH2)2
not cleaved (human plasma): stable to plasma proteases for at least 1 hr

IGLHDPSHGTLPNGS [INGAP, Ile-Gly-Leu-His-Asp-Pro-Ser-His-Gly-Thr-Leu-Pro-Asn-Gly-Ser, reference compound]
C1 h ([3]; IV, rat): 0 ng/mL | F ([3]; rat): 0.00 | C1 h ([3]; SQ, rat): 0 ng/mL | appearance of animals post-dosing [3]: appeared normal | plasma levels ([3]; rat): below the lower limit of quantitation; also recorded: undetectable at any time point | C0 ([3]; male, Sprague-Dawley, plasma, IV, rat): 18800 ng/mL | AUC ([3]; male, Sprague-Dawley, rat, plasma, iv, rat, footnote *extrapolated, read-out: AUC(0-∝), extrapolated): 440 ng·h/mL | half-life ([3]; male, Sprague-Dawley, rat, plasma, iv, rat, read-out: T1/2 (converted)): < 1.5 min | half-life ([3]; male, Sprague-Dawley, rat, plasma, subcutaneous, SQ, rat, read-out: T1/2 (converted)): < 1.5 min

Ac-IGLHDPTQGTEPNGC(PEG)-NH2
not cleaved (human plasma): stable to plasma proteases for up to 1 hr

Ac-IGLHDPTQGTEPNGE-NH2
not cleaved (human plasma): completely stable up to 1 hr of plasma incubation

Ac-IGLHDPTQGTEPNGE-NH2 [HIP3B, Ac-Ile-Gly-Leu-His-Asp-Pro-Thr-Gln-Gly-Thr-Glu-Pro-Asn-Gly-Glu-NH2]
stability to plasma proteases ([1]; human plasma 37° C.): completely stable

IGLHDPTQGTEPNG [HIP2, Ile-Gly-Leu-His-Asp-Pro-Thr-Gln-Gly-Thr-Glu-Pro-Asn-Gly]
C1 h ([3]; IV, rat): 0 ng/mL | F ([3]; rat): 0.01 | C1 h ([3]; SQ, rat): 0 ng/mL | appearance of animals post-dosing [3]: appeared normal | Cmax ([3]; in vivo, IV, rat): 29 ng/mL | Tmax ([3]; in vivo, IV, rat): 4.98 min | C0 ([3]; in vivo, IV, rat): 18800 ng/mL | Tmax ([3]; in vivo, SQ, rat): 4.98 min | Cmax ([3]; in vivo, SQ, rat, n = 5): 32 ng/mL | plasma levels ([3]; rat): very low levels of HIP2 were observed only at five minutes post dosage; also recorded: Very low levels of HIP2 were detected at 5 minutes; also recorded: observed only at the 5 minute time point | AUC [3, 4]: 2.7 ng·h/mL | half-life [3, 5]: 1.2 min | AUC [3, 6]: 442 ng·h/mL | half-life [3, 7]: 1.2 min | new component (proteolysis product) ([1]; human plasma 37° C., 1 min): 5% | new component (proteolysis product) ([1]; human plasma 37° C., 30 min): ≈ 50% | new component (proteolysis product) ([1]; human plasma 37° C., 60 min): ≈ 70%
